Among the data in patent US10093630B2, “Pyrazole compounds and methods of making and using same” (ABIDE THERAPEUTICS, INC., priority 2014, dated 2018) are inhibition and IC50 values, retold here.

Common to all, as to test: In vitro competitive activity-based protein profiling (gel-based, FP-Rh or HT-01 probe)
Holding throughout (assay type): biochemical

One assay addresses T1, PLA2G7 (Mus musculus, UniProt Q60963).
T1 construct: Proteomes (mouse brain membrane fraction or cell lysates); from tissue; host or cells: mouse brain membrane fraction (or cell lysates, not specified)
T1 sequence (Q60963 22-440): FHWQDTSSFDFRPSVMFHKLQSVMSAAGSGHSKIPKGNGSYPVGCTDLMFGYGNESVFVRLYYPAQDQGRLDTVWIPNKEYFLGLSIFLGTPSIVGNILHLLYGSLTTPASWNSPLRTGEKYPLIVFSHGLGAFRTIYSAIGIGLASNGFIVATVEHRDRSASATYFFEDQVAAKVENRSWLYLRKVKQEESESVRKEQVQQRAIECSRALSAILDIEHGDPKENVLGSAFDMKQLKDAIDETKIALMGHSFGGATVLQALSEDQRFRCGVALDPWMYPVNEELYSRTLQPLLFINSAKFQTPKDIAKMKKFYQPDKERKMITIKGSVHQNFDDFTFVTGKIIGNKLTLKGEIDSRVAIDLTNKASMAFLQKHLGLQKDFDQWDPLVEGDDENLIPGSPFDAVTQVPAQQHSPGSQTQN
As to conditions: for inhibition at 1 µM: 1 μM inhibitor, read-out: % Inhibition at 1 μM, D = PLA2G7; for inhibition at 10 µM: 10 μM inhibitor, read-out: % Inhibition at 10 μM, D = PLA2G7. Put shortly:
(§1)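 Competitive labelling format in mouse brain membrane fractions or lysates at 1.0 mg/mL total protein: compounds preincubate 30 min at 37° C, activity probe FP-Rh or HT-01 then reacts 30 min at 37° C. Gel band fluorescence gives target activity.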

Another assay has as its target T2, FAAH (Mus musculus, UniProt O08914).
T2 construct: Proteomes (mouse brain membrane fraction or cell lysates); from tissue; host or cells: mouse brain membrane fraction (or cell lysates, not specified)
T2 sequence (O08914 1-579): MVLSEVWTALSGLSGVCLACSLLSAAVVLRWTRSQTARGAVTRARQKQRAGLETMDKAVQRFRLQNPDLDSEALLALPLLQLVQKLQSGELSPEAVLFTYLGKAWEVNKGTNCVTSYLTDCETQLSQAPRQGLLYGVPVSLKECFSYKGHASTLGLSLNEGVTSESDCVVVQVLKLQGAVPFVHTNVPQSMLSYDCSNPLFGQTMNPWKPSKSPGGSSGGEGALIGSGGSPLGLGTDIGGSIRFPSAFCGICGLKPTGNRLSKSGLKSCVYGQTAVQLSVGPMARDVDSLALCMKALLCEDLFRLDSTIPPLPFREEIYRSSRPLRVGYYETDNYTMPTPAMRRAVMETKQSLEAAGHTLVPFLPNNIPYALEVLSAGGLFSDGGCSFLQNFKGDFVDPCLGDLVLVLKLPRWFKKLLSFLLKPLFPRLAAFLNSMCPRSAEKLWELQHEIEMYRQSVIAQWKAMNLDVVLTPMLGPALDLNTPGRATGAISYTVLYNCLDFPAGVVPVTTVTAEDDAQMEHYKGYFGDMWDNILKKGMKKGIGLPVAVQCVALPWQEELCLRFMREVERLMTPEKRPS
As to conditions: for inhibition at 1 µM: 1 μM inhibitor, read-out: % Inhibition at 1 μM, B = FAAH; for IC50: mouse brain membrane fraction or cell lysates, 30 min preincubation at 37° C., read-out: Mouse (IC50 value, nM) FAAH; for inhibition at 10 µM: 10 μM inhibitor, read-out: % Inhibition at 10 μM, B = FAAH. Put shortly:
as §1

The target in a further assay is T3, ABHD6 (Mus musculus, UniProt Q8R2Y0).
T3 construct: Proteomes (mouse brain membrane fraction or cell lysates); from tissue; host or cells: mouse brain membrane fraction (or cell lysates, not specified)
T3 sequence (Q8R2Y0 1-336): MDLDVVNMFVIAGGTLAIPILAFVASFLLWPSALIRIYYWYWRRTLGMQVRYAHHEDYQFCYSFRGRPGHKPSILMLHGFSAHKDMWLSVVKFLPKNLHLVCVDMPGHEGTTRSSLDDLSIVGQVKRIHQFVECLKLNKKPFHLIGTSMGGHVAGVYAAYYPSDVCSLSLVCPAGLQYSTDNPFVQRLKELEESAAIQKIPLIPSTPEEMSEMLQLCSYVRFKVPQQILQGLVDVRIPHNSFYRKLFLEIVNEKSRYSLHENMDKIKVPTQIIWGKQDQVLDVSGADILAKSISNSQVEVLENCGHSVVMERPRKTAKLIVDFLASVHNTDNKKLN
The settings on record: for inhibition at 1 µM: 1 μM inhibitor, read-out: % Inhibition at 1 μM, C = ABHD6; for IC50: mouse brain membrane fraction or cell lysates, 30 min preincubation at 37° C., read-out: Mouse (IC50 value, nM) ABHD6; for inhibition at 10 µM: 10 μM inhibitor, read-out: % Inhibition at 10 μM, C = ABHD6. Put shortly: as §1

The target of another assay is T4, MAGL (Mus musculus, UniProt O35678).
T4 construct: Proteomes (mouse brain membrane fraction or cell lysates); from tissue; host or cells: mouse brain membrane fraction (or cell lysates, not specified)
T4 sequence (O35678 1-303): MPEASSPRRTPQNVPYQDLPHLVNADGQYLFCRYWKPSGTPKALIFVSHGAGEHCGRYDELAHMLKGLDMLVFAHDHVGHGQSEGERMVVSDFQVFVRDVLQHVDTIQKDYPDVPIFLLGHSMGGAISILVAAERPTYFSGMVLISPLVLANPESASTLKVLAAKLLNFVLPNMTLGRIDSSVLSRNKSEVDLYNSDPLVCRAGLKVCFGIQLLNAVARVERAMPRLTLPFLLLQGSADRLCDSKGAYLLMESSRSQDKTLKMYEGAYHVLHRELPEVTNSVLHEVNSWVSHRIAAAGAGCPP
As to conditions: for inhibition at 1 µM: 1 μM inhibitor; for IC50: mouse brain membrane fraction or cell lysates, 30 min preincubation at 37° C., read-out: Mouse (IC50 value, nM) MAGL; for inhibition at 10 µM: 10 μM inhibitor. In outline:
as §1

Structures are written as SMILES. Like-named read-outs stand apart in the source and are kept apart here. Bounds are passed on as bounds.

Turning to `O=C(N1CCN(Cc2ccccc2Cl)CC1)n1cc(Cl)cn1` [Example 224, (4-Chloro-1H-pyrazol-1-yl)(4-(2-chlorobenzyl)piperazin-1-yl)methanone], the inhibition at 1 µM on PLA2G7 is below 25%; at FAAH, above 75%; on ABHD6 it was above 75%; at MAGL, above 75%. Further, the IC50 on PLA2G7 (mouse brain membrane fraction or cell lysates, 30 min preincubation at 37° C.) is 100 to 1000 nM; at FAAH, 100 to 1000 nM; on ABHD6 it was 100 to 1000 nM; on MAGL it was below 100 nM.

Consider `CCN(Cc1cccc(C)c1)C(=O)n1cc(C)cn1` [Example 248, N-ethyl-4-methyl-N-(3-methylbenzyl)-1H-pyrazole-1-carboxamide], for which the inhibition at 1 µM at PLA2G7 (gel-based competitive ABPP), at FAAH (gel-based competitive ABPP), at ABHD6 (gel-based competitive ABPP) and on MAGL (gel-based competitive ABPP) was below 25% each time.

`O=C(N1CCN(Cc2nccs2)CC1)n1cc(-c2ccccc2)cn1` [Example 63, (4-Phenyl-1H-pyrazol-1-yl)(4-(thiazol-2-ylmethyl)piperazin-1-yl)methanone]: the inhibition at 1 µM on PLA2G7 and on ABHD6 was above 75% throughout. For the same compound, the inhibition at 10 µM at PLA2G7 was above 75%; at FAAH, above 75%; on ABHD6, above 75%; on MAGL, below 25%. In addition, the IC50 on ABHD6 lay within 100 to 1000 nM.

Turning to `O=C(N1CCN(c2ccc(N3CCOCC3)cc2)CC1)n1cc(C(F)(F)F)cn1` [Example 238, (4-(4-Morpholinophenyl)piperazin-1-yl)(4-(trifluoromethyl)-1H-pyrazol-1-yl)methanone], the inhibition at 1 µM at PLA2G7, at FAAH, at ABHD6 and on MAGL was above 75% throughout. In addition, the inhibition at 10 µM on PLA2G7, at FAAH, at ABHD6 and on MAGL was above 75% in each case.

As for `Cc1cc(-c2ccccc2)ccc1CN1CCN(C(=O)n2cc(C(=O)N3CCCCC3)cn2)CC1` [Example 76, (4-((3-Methyl-[1,1′-biphenyl]-4-yl)methyl)piperazin-1-yl)(4-(piperidine-1-carbonyl)-1H-pyrazol-1-yl)methanone], the inhibition at 1 µM on PLA2G7, at FAAH, on ABHD6 and on MAGL was above 75% throughout. Besides, the inhibition at 10 µM on PLA2G7, on FAAH, at ABHD6 and on MAGL was above 75% in each case. In addition, the IC50 on FAAH was below 100 nM; on ABHD6, 100 to 1000 nM; at MAGL it was 100 to 1000 nM.

`Cc1cc(N2CCN(C(=O)n3cc(C#N)cn3)CC2)c2ccccc2n1` [Example 209, 1-(4-(2-Methylquinolin-4-yl)piperazine-1-carbonyl)-1H-pyrazole-4-carbonitrile]: the inhibition at 1 µM at PLA2G7, on FAAH, at ABHD6 and at MAGL was above 75% in each case. In addition, the inhibition at 10 µM at PLA2G7, at FAAH, at ABHD6 and at MAGL was above 75% in each case.

In the case of `O=C(c1cnn(C(=O)N2CCN(Cc3ccc4c(c3)OCO4)CC2)c1)N1CCCCC1` [Example 69, (4-(Benzo[d][1,3]dioxol-5-ylmethyl)piperazin-1-yl)(4-(piperidine-1-carbonyl)-1H-pyrazol-1-yl)methanone], the inhibition at 1 µM was above 75% on PLA2G7, above 75% at FAAH, above 75% at ABHD6 and 25 to 75% on MAGL. The inhibition at 10 µM at PLA2G7, on FAAH, on ABHD6 and at MAGL was above 75% throughout.

Turning to `O=C(N1CCN(C(c2ccc(Cl)cc2)c2ccc(Cl)cc2)CC1)n1cc(-c2ccc(C(F)(F)F)cc2)cn1` [Example 124, (4-(Bis(4-chlorophenyl)methyl)piperazin-1-yl)(4-(4-(trifluoromethyl)phenyl)-1H-pyrazol-1-yl)methanone], the inhibition at 1 µM on PLA2G7 was 25 to 75%; on ABHD6, above 75%. Further, the inhibition at 10 µM on PLA2G7 was above 75%; on FAAH it was below 25%; at ABHD6, above 75%; at MAGL it was 25 to 75%.

Take `O=C(N1CCN(Cc2ccc(N3CCOCC3)cc2)CC1)n1cc(Cl)cn1` [Example 217, (4-Chloro-1H-pyrazol-1-yl)(4-(4-morpholinobenzyl)piperazin-1-yl)methanone]: the inhibition at 1 µM on PLA2G7, on FAAH, on ABHD6 and at MAGL was above 75% throughout.

With `O=C(c1cnn(C(=O)N2CCN(Cc3nccs3)CC2)c1)N1CCCC1` [Example 83, Pyrrolidin-1-yl(1-(4-(thiazol-2-ylmethyl)piperazine-1-carbonyl)-1H-pyrazol-4-yl)methanone], the inhibition at 1 µM on PLA2G7, at FAAH, on ABHD6 and at MAGL was below 25% each time. In addition, the inhibition at 10 µM at PLA2G7 is above 75%; on FAAH it was above 75%; at ABHD6, above 75%; on MAGL, below 25%.

Consider `COc1cc(-c2ccccc2)ccc1CN1CCN(C(=O)n2cc(C#N)cn2)CC1` [Example 145, 1-(4-((3-Methoxybiphenyl-4-yl)methyl)piperazine-1-carbonyl)-1H-pyrazole-4-carbonitrile], for which the inhibition at 1 µM on PLA2G7, on FAAH, on ABHD6 and on MAGL was above 75% throughout. For the same compound, the inhibition at 10 µM at PLA2G7, at FAAH, on ABHD6 and at MAGL was above 75% throughout.

As a reminder, the inhibition is the percentage by which the read-out fell short of the control. Broadly, the IC50 is the concentration that inhibits the measured activity by half.
